The experiment relates to NCI-H441. The experiment is described as follows: Pemetrexed cytotoxicity test upon suppression of expression of MYT1. The format is cell-based. As to conditions: Homo sapiens, NCI-H441 (RB1 wild-type), 7 days. As to the method:
Thereafter, the plates were shaken to transfect each siRNA at a final concentration of 10 nM.
The −Log 2 value of fold change of IC50 and the maximum value of Bliss score, which are indexes of the combination effect, were calculated by comparing with the actually obtained cell survival curve, and described in Table 6 (see Non Patent Literature 9).

By IC50 is commonly meant the point on the concentration scale where inhibition reaches its midpoint.

Read-outs that look alike come from different tables or passages of the source.

With `Nc1nc2[nH]cc(CCc3ccc(C(=O)N[C@@H](CCC(=O)O)C(=O)O)cc3)c2c(=O)[nH]1` [pemetrexed], the IC50 (read-out: IC50 of pemetrexed, MYT1 #16, MYT1 siRNA #16 10 nM) amounted to 95.6 nM; the IC50 (read-out: IC50 of pemetrexed, MYT1 #18, MYT1 siRNA #18 10 nM) amounted to 865 nM; the IC50 (read-out: IC50 of pemetrexed, NT, negative control siRNA 10 nM) is 884 nM.
